The compounds below were run against LSD1 (Homo sapiens, UniProt O60341) (assay: LSD1 fluorescence coupling enzyme assay (HRP/Amplex Red, H3(1-21)K4me2 peptide), 10-dose IC50). Details: 10 μM histone H3(1-21)K4me2 peptide substrate, 3-fold serial dilution from 100 μM.
Assay type: biochemical
From the text: Assaying the inhibition of KDM1A can be determined in vitro, in cultured cells, and in animals. There are a variety of spectrophotometric methods to detect the results of demethylation of methylated lysines, viz., detecting the products of KDM1A demethylase oxidative activity on a peptide fragment of at least 18 amino acids representing the N-terminus of the histone H3 substrate that contains a monomethyl at the fourth lysine residue. Hydrogen peroxide, one product of the KDM1A demethylase reaction, reacts with horseradish peroxidase and dihydroxyphenoxazine (ADHP) to produce the fluorescent compound resorufin (excitation=530-560 nm: emission=590 nm). The KDM1A demethylase enzyme activity can be obtained from mammalian cells or tissues expressing KDM1A from an endogenous or recombinant gene and purified or assayed from a whole cell extract. These methods can be used to determine the concentration of the disclosed compounds can inhibit fifty percent of the enzyme activity (IC50).
Alternatively, the production of H2O2 during the KDM1A reaction can be detected fluometrically. In this system, the production of H2O2 is detected in the HDM assay buffer after exposure to substrate, co-factor and enzyme using ADHP (10-Acetyl-3, 7-dihydroxyphenoxazine) as a fluorogenic substrate for horse radish peroxidase (HRP). […] The florescent product is resorufin. Sensitivity can be as low as 10-15 M of target protein. The signal is read using a fluorescence microplate reader at excitation and emission wavelengths of 530-560 nm and 590 nm, respectively.
Compounds were tested in a 10-dose IC50 mode fluorescence coupling enzyme assay with 3-fold serial dilution in duplicate starting at 100 μM. The production of FAD-dependent H2O2 as a result of demethylase activity of LSD1 on 10 μM histone H3(1-21)K4me2 peptide substrate was measured by coupling with HRP and Amplex Red to yield resorufin (fluorescence measured at Ex/Em=535/590 nm on EnVision, Perkin Elmer).

Row | SMILES | IC50 [nM]
1 | COc1ccc(-n2nc(NC[C@H]3CCCNC3)cc2-c2ccc(C#N)c(F)c2)cc1 [Example 3S, (S)-2-fluoro-4-(1-(4-methoxyphenyl)-3-((piperidin-3-ylmethyl)amino)-1H-pyrazol-5-yl)benzonitrile] | < 500
2 | CC1(O)CCN(c2ccc(-n3nc(NC[C@H]4CCC[C@H](N)C4)cc3-c3ccc(C#N)c(F)c3)c(F)c2)CC1 [Example 116, 4-(3-((((1S,3S)-3-aminocyclohexyl)methyl)amino)-1-(2-fluoro-4-(4-hydroxy-4-methylpiperidin-1-yl)phenyl)-1H-pyrazol-5-yl)-2-fluorobenzonitrile 2,2,2-trifluoroacetate] | < 500
3 | COC1(C)CCN(c2ccc(-n3nc(NCC45CCN(CC4)CC5)cc3-c3ccc(C#N)c(F)c3)cc2)CC1 [Example 125, 2-Fluoro-4-(1-(4-(4-methoxy-4-methylpiperidin-1-yl)phenyl)-3-((quinuclidin-4-ylmethyl)amino)-1H-pyrazol-5-yl)benzonitrile 2,2,2-trifluoroacetate] | < 500
4 | CC(C)OC1CCN(c2ccc(-n3nc(NC[C@H]4CCC[C@H](N)C4)cc3-c3ccc(C#N)c(F)c3)cc2)CC1 [Example 94, 4-(3-((((1S,3S)-3-aminocyclohexyl)methyl)amino)-1-(4-(4-isopropoxypiperidin-1-yl)phenyl)-1H-pyrazol-5-yl)-2-fluorobenzonitrile 2,2,2-trifluoroacetate] | < 500
5 | COc1cc(N2CCN(C)C(=O)C2)ccc1-n1nc(NC[C@H]2CCC[C@H](N)C2)cc1-c1ccc(C#N)c(F)c1 [Example 117, 4-(3-((((1S,3S)-3-aminocyclohexyl)methyl)amino)-1-(2-methoxy-4-(4-methyl-3-oxopiperazin-1-yl)phenyl)-1H-pyrazol-5-yl)-2-fluorobenzonitrile] | < 500
6 | N#Cc1ccc(-c2cc(NCC3CCCNCC3)nn2-c2ccc(N3CCS(=O)(=O)CC3)cc2F)cc1F (centres unmarked) [Example 107, 4-(3-((azepan-4-ylmethyl)amino)-1-(4-(1,1-dioxidothiomorpholino)-2-fluorophenyl)-1H-pyrazol-5-yl)-2-fluorobenzonitrile] | < 500
7 | COC1CCN(c2ccc(-n3nc(NC[C@H]4CCC[C@H](N)C4)cc3-c3ccc(C#N)c(F)c3)nc2)CC1 [Example 120, 4-(3-((((1S,3S)-3-aminocyclohexyl)methyl)amino)-1-(5-(4-methoxypiperidin-1-yl)pyridin-2-yl)-1H-pyrazol-5-yl)-2-fluorobenzonitrile 2,2,2-trifluoroacetate] | < 500
8 | N#Cc1ccc(-c2cc(NC[C@@H]3CCCNCC3)nn2-c2ccc(N3CCS(=O)(=O)CC3)cc2F)cc1F [Example 106, (R)-4-(3-((azepan-4-ylmethyl)amino)-1-(4-(1,1-dioxidothiomorpholino)-2-fluorophenyl)-1H-pyrazol-5-yl)-2-fluorobenzonitrile] | < 500
9 | N#Cc1ccc(-c2cc(NCC34CCN(CC3)CC4)nn2-c2ccc(N3CC4CC3CS4(=O)=O)cc2)cc1F (centres unmarked) [Example 121, 4-(1-(4-(2,2-Dioxido-2-thia-5-azabicyclo[2.2.1]heptan-5-yl)phenyl)-3-((quinuclidin-4-ylmethyl)amino)-1H-pyrazol-5-yl)-2-fluorobenzonitrile 2,2,2-trifluoroacetate] | < 500
10 | N#Cc1ccc(-c2cc(NC[C@H]3CCC[C@H](N)C3)nn2-c2ccc(N3CCC(O)CC3)cc2)cc1F [Example 89, 4-(3-((((1S,3S)-3-aminocyclohexyl)methyl)amino)-1-(4-(4-hydroxypiperidin-1-yl)phenyl)-1H-pyrazol-5-yl)-2-fluorobenzonitrile] | < 500
11 | COC1CCN(c2ccc(-n3nc(NC[C@H]4CCC[C@H](N)C4)cc3-c3ccc(C#N)c(F)c3)c(F)c2)CC1 [Example 92, 4-(3-((((1S,3S)-3-aminocyclohexyl)methyl)amino)-1-(2-fluoro-4-(4-methoxypiperidin-1-yl)phenyl)-1H-pyrazol-5-yl)-2-fluorobenzonitrile 2,2,2-trifluoroacetate] | < 500
12 | N#Cc1ccc(-c2cc(NC[C@H]3CCC[C@H](N)C3)nn2-c2ccc(N3CCOCC3)cc2)cc1F [Example 96, 4-(3-((((1S,3S)-3-aminocyclohexyl)methyl)amino)-1-(4-morpholinophenyl)-1H-pyrazol-5-yl)-2-fluorobenzonitrile 2,2,2-trifluoroacetate] | < 500
13 | N#Cc1ccc(-c2cc(NC[C@H]3CCC[C@H](N)C3)nn2-c2ccc3c(c2)NCCO3)cc1F [Example 119, 4-(3-((((1S,3S)-3-aminocyclohexyl)methyl)amino)-1-(3,4-dihydro-2H-benzo[b][1,4]oxazin-6-yl)-1H-pyrazol-5-yl)-2-fluorobenzonitrile 2,2,2-trifluoroacetate] | < 500
14 | COc1cc(N2CCC(C)(O)CC2)ccc1-n1nc(NC[C@H]2CCC[C@H](N)C2)cc1-c1ccc(C#N)c(F)c1 [Example 115, 4-(3-((((1S,3S)-3-aminocyclohexyl)methyl)amino)-1-(4-(4-hydroxy-4-methylpiperidin-1-yl)-2-methoxyphenyl)-1H-pyrazol-5-yl)-2-fluorobenzonitrile 2,2,2-trifluoroacetate] | 1000 to 10000
15 | CO[C@H]1CCCN(c2ccc(-n3nc(NC[C@H]4CCC[C@H](N)C4)cc3-c3ccc(C#N)c(F)c3)cc2)C1 [Example 98, 4-(3-((((1S,3S)-3-aminocyclohexyl)methyl)amino)-1-(4-((S)-3-methoxypiperidin-1-yl)phenyl)-1H-pyrazol-5-yl)-2-fluorobenzonitrile 2,2,2-trifluoroacetate] | < 500
16 | COc1cc(N2CCS(=O)(=O)CC2)ccc1-n1nc(NC[C@@H]2CCCNCC2)cc1-c1ccc(C#N)c(F)c1 [Example 113, (R)-4-(3-((azepan-4-ylmethyl)amino)-1-(4-(1,1-dioxidothiomorpholino)-2-methoxyphenyl)-1H-pyrazol-5-yl)-2-fluorobenzonitrile 2,2,2-trifluoroacetate] | < 500
17 | N#Cc1ccc(-c2cc(NCC34CCN(CC3)CC4)nn2-c2ccc3c(c2)NCCO3)cc1F [Example 123, 4-(1-(3,4-Dihydro-2H-benzo[b][1,4]oxazin-6-yl)-3-((quinuclidin-4-ylmethyl)amino)-1H-pyrazol-5-yl)-2-fluorobenzonitrile 2,2,2-trifluoroacetate] | < 500
18 | CN1CCN(c2ccc(-n3nc(NC[C@H]4CCC[C@H](N)C4)cc3-c3ccc(C#N)c(F)c3)c(F)c2)CC1=O [Example 109, 4-(3-((((1S,3S)-3-aminocyclohexyl)methyl)amino)-1-(2-fluoro-4-(4-methyl-3-oxopiperazin-1-yl)phenyl)-1H-pyrazol-5-yl)-2-fluorobenzonitrile] | < 500
19 | COc1ccc(-n2nc(NC[C@@H]3CCCNC3)cc2-c2ccc(C#N)c(F)c2)cc1 [Example 3R, (R)-2-fluoro-4-(1-(4-methoxyphenyl)-3-((piperidin-3-ylmethyl)amino)-1H-pyrazol-5-yl)benzonitrile] | < 500
20 | CN1CCN(c2ccc(-n3nc(NC[C@H]4CCC[C@H](N)C4)cc3-c3ccc(C#N)c(F)c3)cc2)CC1=O [Example 105, 4-(3-((((1S,3S)-3-aminocyclohexyl)methyl)amino)-1-(4-(4-methyl-3-oxopiperazin-1-yl)phenyl)-1H-pyrazol-5-yl)-2-fluorobenzonitrile] | 1000 to 10000
21 | COc1cc(N2CCS(=O)(=O)CC2)ccc1-n1nc(NC[C@H]2CCCNCC2)cc1-c1ccc(C#N)c(F)c1 [Example 112, (S)-4-(3-((azepan-4-ylmethyl)amino)-1-(4-(1,1-dioxidothiomorpholino)-2-methoxyphenyl)-1H-pyrazol-5-yl)-2-fluorobenzonitrile 2,2,2-trifluoroacetate] | < 500
22 | CN(c1ccc(-n2nc(NC[C@H]3CCC[C@H](N)C3)cc2-c2ccc(C#N)c(F)c2)cc1)C1CCOCC1 [Example 93, 4-(3-((((1S,3S)-3-aminocyclohexyl)methyl)amino)-1-(4-(methyl(tetrahydro-2H-pyran-4-yl)amino)phenyl)-1H-pyrazol-5-yl)-2-fluorobenzonitrile 2,2,2-trifluoroacetate] | < 500
23 | CN1CCN(c2ccc(-n3nc(NC[C@H]4CCC[C@H](NC(=N)N)C4)cc3-c3ccc(C#N)c(F)c3)cc2)CC1 [Example 127, 1-((1S,3S)-3-(((5-(4-cyano-3-fluorophenyl)-1-(4-(4-methylpiperazin-1-yl)phenyl)-1H-pyrazol-3-yl)amino)methyl)cyclohexyl)guanidine 2,2,2-trifluoroacetate] | < 500

Reference: patent publication US20250032454A1, “KDM1A INHIBITORS FOR THE TREATMENT OF DISEASE” (Imago Biosciences, Inc., priority 2021, published 2025)
